Like-named read-outs stand apart in the source and are kept apart here.
Experiments:
IKZF1 = biological target: T1, IKZF1 (Homo sapiens, UniProt Q13422+Q96SW2); test: Western blot degradation of IKZF1 (hPBMC); format: cell-based; settings: Table D16
T1 construct: evaluate the effects of the compounds of the present disclosure on the expression of target proteins in cells; endogenous in cells; host or cells: hPBMC
Summary of the method: (§1)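 Quantification by ImageJ densitometry of Western blot bands: DC50 is the fitted concentration halving band intensity relative to DMSO. Percent remaining uses internal-control normalization, and degradation rate is its complement.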

GSPT1 = biological target: T2, GSPT1 (Homo sapiens, UniProt P15170+Q96SW2); test: Western blot degradation of GSPT1 (hPBMC); format: cell-based; settings: Table D16
T2 construct: evaluate the effects of the compounds of the present disclosure on the expression of target proteins in cells; endogenous in cells; host or cells: hPBMC
T2 sequence (P15170 whole entry): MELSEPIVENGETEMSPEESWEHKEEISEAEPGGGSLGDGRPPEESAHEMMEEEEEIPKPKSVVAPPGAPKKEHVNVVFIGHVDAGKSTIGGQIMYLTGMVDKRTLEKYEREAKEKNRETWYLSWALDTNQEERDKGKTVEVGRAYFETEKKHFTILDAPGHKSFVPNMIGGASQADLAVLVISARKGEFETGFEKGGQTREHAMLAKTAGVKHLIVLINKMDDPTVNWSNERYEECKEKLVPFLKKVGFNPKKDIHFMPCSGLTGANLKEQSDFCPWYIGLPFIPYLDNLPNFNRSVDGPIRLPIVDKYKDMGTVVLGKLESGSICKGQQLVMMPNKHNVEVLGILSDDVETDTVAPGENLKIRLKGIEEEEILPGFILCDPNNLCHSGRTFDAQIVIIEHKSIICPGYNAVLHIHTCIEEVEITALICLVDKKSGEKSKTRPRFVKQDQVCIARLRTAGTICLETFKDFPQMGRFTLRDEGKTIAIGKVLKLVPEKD
T2 sequence (Q96SW2 whole entry): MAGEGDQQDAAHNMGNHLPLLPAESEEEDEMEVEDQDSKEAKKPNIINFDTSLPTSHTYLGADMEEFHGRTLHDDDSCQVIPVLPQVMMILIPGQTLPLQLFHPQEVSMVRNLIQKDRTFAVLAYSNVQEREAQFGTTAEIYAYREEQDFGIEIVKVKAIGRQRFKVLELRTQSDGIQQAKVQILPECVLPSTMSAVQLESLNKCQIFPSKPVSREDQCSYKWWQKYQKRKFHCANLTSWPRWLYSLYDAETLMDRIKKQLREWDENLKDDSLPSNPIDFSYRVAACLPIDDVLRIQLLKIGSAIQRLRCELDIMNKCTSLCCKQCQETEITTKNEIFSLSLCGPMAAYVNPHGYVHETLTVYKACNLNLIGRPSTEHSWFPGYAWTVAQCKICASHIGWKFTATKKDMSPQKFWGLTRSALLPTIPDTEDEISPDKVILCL
T2 sequence (Q16531 whole entry partner): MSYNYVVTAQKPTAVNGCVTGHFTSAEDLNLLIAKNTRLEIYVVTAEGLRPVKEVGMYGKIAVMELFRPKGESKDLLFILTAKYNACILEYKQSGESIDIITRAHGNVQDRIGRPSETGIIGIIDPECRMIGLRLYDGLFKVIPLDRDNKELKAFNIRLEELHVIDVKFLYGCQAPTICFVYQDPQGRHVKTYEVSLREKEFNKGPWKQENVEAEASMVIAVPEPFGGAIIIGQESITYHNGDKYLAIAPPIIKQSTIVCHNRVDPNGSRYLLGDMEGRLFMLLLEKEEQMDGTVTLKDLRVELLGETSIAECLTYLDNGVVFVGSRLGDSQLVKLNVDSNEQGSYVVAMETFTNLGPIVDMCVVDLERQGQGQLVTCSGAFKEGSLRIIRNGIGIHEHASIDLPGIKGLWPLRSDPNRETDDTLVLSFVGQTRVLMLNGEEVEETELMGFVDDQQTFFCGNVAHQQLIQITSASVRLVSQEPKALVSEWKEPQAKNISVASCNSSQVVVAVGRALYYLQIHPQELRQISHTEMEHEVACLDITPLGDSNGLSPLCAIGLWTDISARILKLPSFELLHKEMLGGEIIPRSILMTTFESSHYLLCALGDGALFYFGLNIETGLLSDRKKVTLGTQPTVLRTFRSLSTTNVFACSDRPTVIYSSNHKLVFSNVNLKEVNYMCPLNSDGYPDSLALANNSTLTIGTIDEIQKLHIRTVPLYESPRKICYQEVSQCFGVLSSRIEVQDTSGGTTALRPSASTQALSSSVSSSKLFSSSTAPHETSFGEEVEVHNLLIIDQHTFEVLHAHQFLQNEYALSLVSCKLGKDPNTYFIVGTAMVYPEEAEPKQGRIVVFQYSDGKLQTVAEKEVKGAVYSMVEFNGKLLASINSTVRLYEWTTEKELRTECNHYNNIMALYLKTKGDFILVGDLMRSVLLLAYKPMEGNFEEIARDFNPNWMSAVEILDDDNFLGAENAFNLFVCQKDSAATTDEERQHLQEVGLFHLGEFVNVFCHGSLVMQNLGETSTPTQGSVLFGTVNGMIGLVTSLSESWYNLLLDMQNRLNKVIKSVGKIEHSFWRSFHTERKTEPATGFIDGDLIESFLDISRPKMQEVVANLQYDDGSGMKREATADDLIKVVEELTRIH
Summary of the method: as §1

MCF7 = test: CCK-8 proliferation, MCF7 (MCF-7); format: cell-based; settings: Homo sapiens
Summary of the method: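 Cells seeded, then after 24 h treated with 10 concentrations (top 10 µM, 5-fold serial dilution) for a line-specific time at 37°C, 5% CO2. Viability read by CCK-8; IC50 fitted from growth-inhibition curves.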

IKZF2 = biological target: T3, IKZF2 (Homo sapiens, UniProt Q96SW2+Q9UKS7); test: Western blot degradation of IKZF2 (hPBMC); format: cell-based; settings: Table D16
T3 construct: evaluate the effects of the compounds of the present disclosure on the expression of target proteins in cells; endogenous in cells; host or cells: hPBMC
Summary of the method: as §1

CK1a = biological target: T4, CK1a (Homo sapiens, UniProt P48729+Q96SW2); test: Western blot degradation of CK1a (hPBMC); format: cell-based; settings: Table D16
T4 construct: evaluate the effects of the compounds of the present disclosure on the expression of target proteins in cells; endogenous in cells; host or cells: hPBMC
T4 sequence (P48729 whole entry): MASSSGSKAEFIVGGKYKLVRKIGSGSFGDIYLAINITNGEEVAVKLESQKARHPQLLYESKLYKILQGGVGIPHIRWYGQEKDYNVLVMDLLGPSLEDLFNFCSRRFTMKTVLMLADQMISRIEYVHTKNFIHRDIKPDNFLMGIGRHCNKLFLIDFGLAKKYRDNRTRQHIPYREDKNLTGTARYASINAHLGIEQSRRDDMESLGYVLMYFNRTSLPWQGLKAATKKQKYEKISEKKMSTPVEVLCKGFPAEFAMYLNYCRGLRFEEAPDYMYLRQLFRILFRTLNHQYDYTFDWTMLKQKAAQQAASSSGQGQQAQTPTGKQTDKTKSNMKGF
T4 sequence (Q96SW2 whole entry): as the sequence (Q96SW2 whole entry) above
T4 sequence (Q16531 whole entry partner): as the sequence (Q16531 whole entry partner) above
Summary of the method: as §1

IKZF3 = biological target: T5, IKZF3 (Homo sapiens, UniProt Q96SW2+Q9UKT9); test: Western blot degradation of IKZF3 (hPBMC); format: cell-based; settings: Table D16
T5 construct: evaluate the effects of the compounds of the present disclosure on the expression of target proteins in cells; endogenous in cells; host or cells: hPBMC
T5 sequence (Q9UKT9 whole entry): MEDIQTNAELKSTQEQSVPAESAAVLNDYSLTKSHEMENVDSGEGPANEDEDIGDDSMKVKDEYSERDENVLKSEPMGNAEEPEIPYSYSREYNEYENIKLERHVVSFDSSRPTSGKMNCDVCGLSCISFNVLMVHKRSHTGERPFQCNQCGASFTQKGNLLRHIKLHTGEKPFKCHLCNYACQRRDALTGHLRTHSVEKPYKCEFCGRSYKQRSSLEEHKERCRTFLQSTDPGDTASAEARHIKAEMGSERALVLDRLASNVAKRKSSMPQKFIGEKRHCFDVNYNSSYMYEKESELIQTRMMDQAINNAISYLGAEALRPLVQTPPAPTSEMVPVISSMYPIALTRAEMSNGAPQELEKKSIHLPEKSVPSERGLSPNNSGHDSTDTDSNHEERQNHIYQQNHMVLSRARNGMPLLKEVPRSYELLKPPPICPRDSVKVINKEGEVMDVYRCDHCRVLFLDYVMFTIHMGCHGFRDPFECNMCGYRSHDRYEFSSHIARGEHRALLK
T5 sequence (Q96SW2 whole entry): as the sequence (Q96SW2 whole entry) above
T5 sequence (Q16531 whole entry partner): as the sequence (Q16531 whole entry partner) above
Summary of the method: as §1

WEE1 = biological target: T6, WEE1 (Homo sapiens, UniProt P30291+Q96SW2); test: Western blot degradation of WEE1 (hPBMC); format: cell-based; settings: Table D16
T6 construct: evaluate the effects of the compounds of the present disclosure on the expression of target proteins in cells; endogenous in cells; host or cells: hPBMC
T6 sequence (P30291 whole entry): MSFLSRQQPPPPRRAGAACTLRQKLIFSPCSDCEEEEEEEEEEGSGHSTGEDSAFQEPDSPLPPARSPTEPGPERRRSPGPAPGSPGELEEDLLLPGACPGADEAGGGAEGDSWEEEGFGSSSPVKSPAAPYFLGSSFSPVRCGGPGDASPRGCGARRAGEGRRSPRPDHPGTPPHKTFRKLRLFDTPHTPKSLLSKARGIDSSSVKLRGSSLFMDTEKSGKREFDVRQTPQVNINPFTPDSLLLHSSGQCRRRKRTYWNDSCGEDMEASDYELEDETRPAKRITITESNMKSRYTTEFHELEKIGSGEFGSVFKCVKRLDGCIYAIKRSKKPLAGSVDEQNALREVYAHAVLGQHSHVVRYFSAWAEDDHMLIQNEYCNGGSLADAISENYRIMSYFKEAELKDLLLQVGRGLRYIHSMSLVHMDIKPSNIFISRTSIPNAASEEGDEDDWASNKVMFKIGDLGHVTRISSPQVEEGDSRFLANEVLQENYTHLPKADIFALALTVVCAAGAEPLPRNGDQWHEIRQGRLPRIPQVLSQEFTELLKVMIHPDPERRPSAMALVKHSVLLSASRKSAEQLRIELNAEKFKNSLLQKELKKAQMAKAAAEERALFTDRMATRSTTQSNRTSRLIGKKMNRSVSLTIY
T6 sequence (Q96SW2 whole entry): as the sequence (Q96SW2 whole entry) above
T6 sequence (Q16531 whole entry partner): as the sequence (Q16531 whole entry partner) above
Summary of the method: as §1

[1] = biological target: T7, human Cereblon WT GST-tagged protein (Homo sapiens, UniProt Q96SW2); test: CRBN binding, HTRF (CEREBLON BINDING kit); settings: Table II-2, CRBN binding screening, HTRF
T7 construct: purchased CISBIO 64BDCRBNPEH
T7 sequence (Q96SW2 whole entry): as the sequence (Q96SW2 whole entry) above
Summary of the method: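 After 3 h at room temperature, emission at 665 and 620 nm was measured in a homogeneous time-resolved fluorescence format. Compounds competed with a Thalidomide-Re probe for GST-tagged wild-type human CRBN, which was labelled with a Eu anti-GST antibody.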

[2] = MCF7, CCK-8, read-out: Inhibitory activity (IC50) on tumor cell proliferation, MCF-7

T1 sequence (Q13422 whole entry): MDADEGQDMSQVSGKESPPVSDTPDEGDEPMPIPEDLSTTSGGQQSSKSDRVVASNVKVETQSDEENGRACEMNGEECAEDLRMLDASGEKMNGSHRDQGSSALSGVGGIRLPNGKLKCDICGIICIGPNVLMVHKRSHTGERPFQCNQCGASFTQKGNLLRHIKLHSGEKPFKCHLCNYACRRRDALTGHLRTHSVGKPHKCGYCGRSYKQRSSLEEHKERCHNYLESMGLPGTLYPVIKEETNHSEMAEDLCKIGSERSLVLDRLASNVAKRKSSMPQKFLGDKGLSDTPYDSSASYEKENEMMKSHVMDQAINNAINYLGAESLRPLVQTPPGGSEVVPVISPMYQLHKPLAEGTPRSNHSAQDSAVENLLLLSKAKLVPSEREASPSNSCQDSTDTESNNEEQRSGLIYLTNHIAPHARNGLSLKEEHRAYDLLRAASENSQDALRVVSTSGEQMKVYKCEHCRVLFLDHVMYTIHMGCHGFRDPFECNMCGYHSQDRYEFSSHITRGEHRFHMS
T1 sequence (Q96SW2 whole entry): as the sequence (Q96SW2 whole entry) above
T1 sequence (Q16531 whole entry partner): as the sequence (Q16531 whole entry partner) above

Structure (SMILES) | Degradation of substrate protein IKZF1 (substrate protein remaining %) (IKZF1) | Degradation of substrate protein GSPT1 (substrate protein remaining %) (GSPT1) | IC50 (MCF7; [2]) [nM] | Degradation of substrate protein IKZF2 (substrate protein remaining %) (IKZF2) | Degradation of substrate protein CKla (substrate protein remaining %) (CK1a) | Degradation of substrate protein IKZF3 (substrate protein remaining %) (IKZF3) | Degradation of substrate protein WEE1 (substrate protein remaining %) (WEE1) | IC50 (MCF7; MCF7, read-out: Inhibitory activity (IC50) on tumor cell proliferation, MCF-7) [nM] | inhibition at 0.5 µM ([1]; at 0.5µM, read-out: Inhibition rate (%) at 0.5µM) [%] | inhibition at 2 µM ([1]; at 2 µM, read-out: Inhibition rate (%) at 2 µM) [%]
O=C1CCN(c2cnc(CO)c(F)c2)C(=O)N1 [GT-07555, 1-(5-Fluoro-6-(hydroxymethyl)pyridin-3-yl)dihydropyrimidine-2,4(1H,3H)-dione] | A (A is defined as 0% ≤ substrate protein remaining % ≤ 80%) | A (A is defined as 0% ≤ substrate protein remaining % ≤ 80%) | 1000 to 5000 | A (A is defined as 0% ≤ substrate protein remaining % ≤ 80%) | A (A is defined as 0% ≤ substrate protein remaining % ≤ 80%) | A (A is defined as 0% ≤ substrate protein remaining % ≤ 80%) | A (A is defined as 0% ≤ substrate protein remaining % ≤ 80%) | – | – | –
CC(C)(C)[Si](C)(C)OCc1ccc(NC2CCC(=O)NC2=O)nn1 (stereo not drawn) [GT-07726, 3-((6-(((tert-Butyldimethylsilyl)oxy)methyl)pyridazin-3-yl)amino)piperidine-2,6-dione] | A (A is defined as 0% ≤ substrate protein remaining % ≤ 80%) | B (B is defined as substrate protein remaining % > 80%) | – | A (A is defined as 0% ≤ substrate protein remaining % ≤ 80%) | B (B is defined as substrate protein remaining % > 80%) | A (A is defined as 0% ≤ substrate protein remaining % ≤ 80%) | A (A is defined as 0% ≤ substrate protein remaining % ≤ 80%) | 1000 to 5000 | – | –
O=C1CCC(c2cnc(CO)c(F)c2)C(=O)N1 (stereo not drawn) [GT-07049, 3-(5-Fluoro-6-(hydroxymethyl)pyridin-3-yl)piperidine-2,6-dione] | B (B is defined as substrate protein remaining % > 80%) | A (A is defined as 0% ≤ substrate protein remaining % ≤ 80%) | 1000 to 5000 | A (A is defined as 0% ≤ substrate protein remaining % ≤ 80%) | A (A is defined as 0% ≤ substrate protein remaining % ≤ 80%) | A (A is defined as 0% ≤ substrate protein remaining % ≤ 80%) | B (B is defined as substrate protein remaining % > 80%) | – | – | –
NCc1cncc(N2CCC(=O)NC2=O)c1 [GT-07077, 1-(5-(Aminomethyl)pyridin-3-yl)dihydropyrimidine-2,4(1H,3H)-dione] | B (B is defined as substrate protein remaining % > 80%) | A (A is defined as 0% ≤ substrate protein remaining % ≤ 80%) | 1000 to 5000 | B (B is defined as substrate protein remaining % > 80%) | B (B is defined as substrate protein remaining % > 80%) | B (B is defined as substrate protein remaining % > 80%) | B (B is defined as substrate protein remaining % > 80%) | – | – | –
O=Cc1cncc(NC2CCC(=O)NC2=O)c1 (stereo not drawn) [GT-07554, 5-((2,6-Dioxopiperidin-3-yl)amino)nicotinaldehyde] | A (A is defined as 0% ≤ substrate protein remaining % ≤ 80%) | B (B is defined as substrate protein remaining % > 80%) | 1000 to 5000 | A (A is defined as 0% ≤ substrate protein remaining % ≤ 80%) | A (A is defined as 0% ≤ substrate protein remaining % ≤ 80%) | A (A is defined as 0% ≤ substrate protein remaining % ≤ 80%) | A (A is defined as 0% ≤ substrate protein remaining % ≤ 80%) | – | – | –
O=C1CCC(Nc2ccc(CO)cn2)C(=O)N1 (stereo not drawn) [GT-07551, 3-((5-(Hydroxymethyl)pyridin-2-yl)amino)piperidine-2,6-dione] | B (B is defined as substrate protein remaining % > 80%) | B (B is defined as substrate protein remaining % > 80%) | 1000 to 5000 | A (A is defined as 0% ≤ substrate protein remaining % ≤ 80%) | B (B is defined as substrate protein remaining % > 80%) | B (B is defined as substrate protein remaining % > 80%) | A (A is defined as 0% ≤ substrate protein remaining % ≤ 80%) | – | – | –
O=C1CCC(Nc2ncncc2CO)C(=O)N1 (stereo not drawn) [GT-07727, 3-((5-(Hydroxymethyl)pyrimidin-4-yl)amino)piperidine-2,6-dione] | A (A is defined as 0% ≤ substrate protein remaining % ≤ 80%) | B (B is defined as substrate protein remaining % > 80%) | 1000 to 5000 | A (A is defined as 0% ≤ substrate protein remaining % ≤ 80%) | B (B is defined as substrate protein remaining % > 80%) | A (A is defined as 0% ≤ substrate protein remaining % ≤ 80%) | A (A is defined as 0% ≤ substrate protein remaining % ≤ 80%) | – | – | –
O=C1CCC(c2cncc(CCl)c2)C(=O)N1 (stereo not drawn) [GT-06991, 3-(5-(Chloromethyl)pyridin-3-yl)piperidine-2,6-dione] | B (B is defined as substrate protein remaining % > 80%) | B (B is defined as substrate protein remaining % > 80%) | – | A (A is defined as 0% ≤ substrate protein remaining % ≤ 80%) | B (B is defined as substrate protein remaining % > 80%) | B (B is defined as substrate protein remaining % > 80%) | B (B is defined as substrate protein remaining % > 80%) | – | 30 to 40 | 53 to 60
NCc1ccc(N2CCC(=O)NC2=O)cn1 [GT-07048, 1-(6-(Aminomethyl)pyridin-3-yl)dihydropyrimidine-2,4(1H,3H)-dione] | A (A is defined as 0% ≤ substrate protein remaining % ≤ 80%) | A (A is defined as 0% ≤ substrate protein remaining % ≤ 80%) | – | A (A is defined as 0% ≤ substrate protein remaining % ≤ 80%) | A (A is defined as 0% ≤ substrate protein remaining % ≤ 80%) | A (A is defined as 0% ≤ substrate protein remaining % ≤ 80%) | B (B is defined as substrate protein remaining % > 80%) | – | – | –
O=C1CCC(c2ccc(CO)nc2)C(=O)N1 (stereo not drawn) [GT-07010, 3-(6-(Hydroxymethyl)pyridin-3-yl)piperidine-2,6-dione] | B (B is defined as substrate protein remaining % > 80%) | A (A is defined as 0% ≤ substrate protein remaining % ≤ 80%) | – | B (B is defined as substrate protein remaining % > 80%) | A (A is defined as 0% ≤ substrate protein remaining % ≤ 80%) | A (A is defined as 0% ≤ substrate protein remaining % ≤ 80%) | B (B is defined as substrate protein remaining % > 80%) | – | – | –
